According to US20160050923A1, “N-SUBSTITUTED ACYL-IMINO-PYRIDINE COMPOUNDS AND DERIVATIVES FOR COMBATING ANIMAL PESTS” (BASF SE, priority 2013, published 2016):

Legend:
Assay type in all cases: in vivo
[1] = system: Aphis craccivora; test: Cowpea aphid (Aphis craccivora) spray test on potted cowpea plants; conditions: 72 h, read-out: mortality in comparison with untreated controls
Protocol: B.4 Cowpea Aphid (Aphis craccivora)
The active compound was dissolved at the desired concentration in a mixture of 1:1 (vol:vol) distilled water: acetone. Surfactant (Alkamuls® EL 620) was added at a rate of 0.1% (vol/vol). The test solution was prepared at the day of use.
Potted cowpea plants were colonized with approximately 50-100 aphids of various stages by manually transferring a leaf tissue cut from infested plant 24 hours before application. Plants were sprayed after the pest population has been recorded. Treated plants were maintained on light carts at about 28° C. Percent mortality was assessed after 72 hours.

[2] = system: Nilaparvata lugens; test: Rice brown plant hopper (Nilaparvata lugens) test on sprayed rice seedlings; conditions: 72 h, read-out: mortality in comparison with untreated controls
Protocol: B.8 Rice Brown Plant Hopper (Nilaparvata lugens)
(§1) Rice seedlings were cleaned and washed 24 hours before spraying. The active compounds was formulated in 50:50 acetone:water (vol:vol) and 0.1% vol/vol surfactant (EL 620) was added. Potted rice seedlings were sprayed with 5 ml test solution, air dried, placed in cages and inoculated with 10 adults. Treated rice plants were kept at about 28-29° C. and relative humidity of about 50-60%. Percent mortality was recorded after 72 hours.

[3] = system: Myzus persicae; test: Green peach aphid (Myzus persicae) spray test on infested bell pepper plants; conditions: 120 h, read-out: mortality in comparison with untreated controls
Protocol: B.1 Green Peach Aphid (Myzus persicae)
The active compounds were formulated by a Tecan liquid handler in 100% cyclohexanone as a 10,000 ppm solution supplied in tubes. The 10,000 ppm solution was serially diluted in 100% cyclohexanone to make interim solutions. These served as stock solutions for which final dilutions were made by the Tecan in 50% acetone:50% water (v/v) into 5 or 10 ml glass vials. A nonionic surfactant (Kinetic®) was included in the solution at a volume of 0.01% (v/v). The vials were then inserted into an automated electrostatic sprayer equipped with an atomizing nozzle for application to plants/insects.
Bell pepper plants at the first true-leaf stage were infested prior to treatment by placing heavily infested leaves from the main colony on top of the treatment plants. Aphids were allowed to transfer overnight to accomplish an infestation of 30-50 aphids per plant and the host leaves were removed. The infested plants were then sprayed by an automated electrostatic plant sprayer equipped with an atomizing spray nozzle. The plants were dried in the sprayer fume hood, removed, and then maintained in a growth room under fluorescent lighting in a 24-hr photoperiod at about 25° C. and about 20-40% relative humidity. Aphid mortality on the treated plants, relative to mortality on untreated control plants, was determined after 5 days.

[4] = system: Megoura viciae; test: Vetch aphid (Megoura viciae) broad bean leaf disk microtiter test; conditions: foliar, 120 h, read-out: mortality in comparison with untreated controls
Protocol: B.2 Vetch Aphid (Megoura viciae)
For evaluating control of vetch aphid (Megoura viciae) through contact or systemic means the test unit consisted of 24-well-microtiter plates containing broad bean leaf disks.
The compounds were formulated using a solution containing 75% v/v water and 25% v/v DMSO. Different concentrations of formulated compounds were sprayed onto the leaf disks at 2.5 μl, using a custom built micro atomizer, at two replications.
After application, the leaf disks were air-dried and 5-8 adult aphids were placed on the leaf disks inside the microtiter plate wells. The aphids were then allowed to suck on the treated leaf disks and were incubated at about 23±1° C. and about 50±5% relative humidity for 5 days. Aphid mortality and fecundity was then visually assessed.

[5] = system: Nephotettix virescens; test: Rice green leafhopper (Nephotettix virescens) test on sprayed rice seedlings; conditions: 72 h, read-out: mortality in comparison with untreated controls
Protocol: B.7 Rice Green Leafhopper (Nephotettix virescens)
as §1, with “compounds were” for “compounds was”, “acetone:water (vol:vol),” for “acetone:water (vol:vol)”

[6] = system: Dichromothrips corbetti; test: Orchid thrips (Dichromothrips corbetti) floral-immersion test; conditions: 72 h, read-out: mortality in comparison with untreated controls
Protocol: B.6 Orchid Thrips (Dichromothrips corbetti)
Dichromothrips corbetti adults used for bioassay were obtained from a colony maintained continuously under laboratory conditions. For testing purposes, the test compound is diluted in a 1:1 mixture of acetone:water (vol:vol), plus 0.01% vol/vol Alkamuls® EL 620 surfactant.
Thrips potency of each compound was evaluated by using a floral-immersion technique. Plastic petri dishes were used as test arenas. All petals of individual, intact orchid flowers were dipped into treatment solution and allowed to dry. Treated flowers were placed into individual petri dishes along with about 20 adult thrips. The petri dishes were then covered with lids. All test arenas were held under continuous light and a temperature of about 28° C. for duration of the assay. After 3 days, the numbers of live thrips were counted on each flower, and along inner walls of each petri dish. The percentmortality was recorded 72 hours after treatment.

CSCC(=O)/N=c1\ccccn1Cc1ccc(Cl)nc1 [E1-9, N-[1-[(6-chloro-3-pyridyl)methyl]-2-pyridylidene]-2-methylsulfanyl-acetamide]
≥ 75%: mortality at 500 ppm [1] | mortality at 500 ppm [2] | mortality at 2500 ppm [3] | mortality at 2500 ppm [4] | mortality at 500 ppm [5]

CS(=O)(=O)CC(=O)N=c1ccccn1Cc1ccc(Cl)nc1 [E1-10, N-[1-[(6-chloro-3-pyridyl)methyl]-2-pyridylidene]-2-methylsulfonyl-acetamide]
≥ 75%: mortality at 500 ppm [1] | mortality at 500 ppm [2] | mortality at 2500 ppm [3] | mortality at 500 ppm [6] | mortality at 2500 ppm [4] | mortality at 500 ppm [5]
